Experiment: Stability test: impurity content by HPLC (self-control)
Type: physicochemical
Conditions: for Impurity (%)/RRT relative retention time 0.71 / Impurity (%)/RRT relative retention time 0.78 / Impurity (%)/RRT relative retention time 0.83 / Impurity (%)/RRT relative retention time 0.89 / Impurity (%)/RRT relative retention time 0.9 / Impurity (%)/RRT relative retention time 1.06 / Impurity (%)/RRT relative retention time 1.95 / Impurity (%)/RRT relative retention time 0.93 / Impurity (%)/RRT relative retention time 1.97: — = not detected
Description: The impurity content of the immediate-release tablets obtained in Examples 1, 3, and 8 was determined respectively to evaluate the stability, and the steps were as follows:
1. Preparation Method for Test Solution I and Test Solution II
About 25 mg of a batch of nitroxoline prodrug was added to a 50 mL volumetric flask, followed by the addition of about 30 mL of acetonitrile. The resulting solution was ultrasonicated for 10 minutes, cooled to room temperature, diluted with acetonitrile to the constant volume, and mixed well. An appropriate amount of the above solution was filtered to obtain test solution I.
According to the above method, another batch of nitroxoline prodrug was used to obtain test solution II.
Test solution I was used to study the impurity content under normal temperature and different storage times (0 h, 6 h, 12 h, 18 h, 24 h), and the impurity content under 2 to 8° C. and a storage time of 24 hours.
Test solution II was used to study the impurity content under two different stability conditions (intermediate condition of 30° C./65% RH and accelerated condition of 40° C./75% RH, as shown in Table 2).
2. […]
3. Preparation Method for 0.2% Self-Control Solution
2 mL of test solution I, test solution II or test solution III was added to a 100 mL volumetric flask, and diluted with acetonitrile to the constant volume. 1 mL of the resulting solution was added to a 10 mL volumetric flask, diluted with acetonitrile to the constant volume, and mixed well to obtain the desired solution.
4. Determination of Impurity Content
(§1) Test solution I was placed at room temperature, and samples were collected respectively at 0 h, 6 h, 12 h, 18 h, 24 h. 0.2% self-control solution was formulated. Samples were injected respectively, and the single impurity content and total impurity content in test solution I at each time point were calculated according to the self-control.
as §1, with “in a refrigerator (2 to 8° C.),” for “at room temperature,”, “collected” for “collected respectively”, “at” for “at 0 h, 6 h, 12 h, 18 h,”, “this” for “each”
Samples were collected from Test solution II at 0 day, at one month under the intermediate condition (30° C./65% RH) and at one month under the accelerated condition (40° C./75% RH). 0.2% self-control solution was formulated. Samples were injected respectively, and the single impurity content and total impurity content in test solution II at this time point were calculated according to the self-control. […]

[1] = Accelerated condition (40° C./75% RH) one month
[2] = Intermediate condition (30° C./65% RH) one month

CC(C)C(=O)N1CCC[C@H]1C(=O)OCOc1ccc([N+](=O)[O-])c2cccnc12 [nitroxoline prodrug, (S)-(5-nitroquinolin-8-yloxy)methyl 1-isopropionylpyrrolidine-2-carboxylate]
Total impurity (%) [1]: 1.038% | Impurity (%)/RRT relative retention time 0.71 [1]: 0.005% | Impurity (%)/RRT relative retention time 0.78 [1]: 0.792% | Impurity (%)/RRT relative retention time 0.83 [1]: 0.02% | Impurity (%)/RRT relative retention time 0.89 [1]: 0.018% | Impurity (%)/RRT relative retention time 0.9 [1]: 0.012% | Impurity (%)/RRT relative retention time 1.06 [1]: 0.173% | Impurity (%)/RRT relative retention time 1.95 [1]: 0.018% | Total impurity (%) [2]: 0.333% | Impurity (%)/RRT relative retention time 0.78 [2]: 0.117% | Impurity (%)/RRT relative retention time 0.89 [2]: 0.018% | Impurity (%)/RRT relative retention time 0.9 [2]: 0.011% | Impurity (%)/RRT relative retention time 1.06 [2]: 0.169% | Impurity (%)/RRT relative retention time 1.95 [2]: 0.018% | Total impurity (%) (Storage time 0 h(RT)): 0.192% | Impurity (%)/RRT relative retention time 0.89 (Storage time 0 h(RT)): 0.055% | Impurity (%)/RRT relative retention time 0.9 (Storage time 0 h(RT)): 0.055% | Impurity (%)/RRT relative retention time 0.93 (Storage time 0 h(RT)): 0.082% | Total impurity (%) (Storage time 0 day): 0.261% | Impurity (%)/RRT relative retention time 0.78 (Storage time 0 day): 0.042% | Impurity (%)/RRT relative retention time 0.89 (Storage time 0 day): 0.019% | Impurity (%)/RRT relative retention time 0.9 (Storage time 0 day): 0.011% | Impurity (%)/RRT relative retention time 1.06 (Storage time 0 day): 0.17% | Impurity (%)/RRT relative retention time 1.95 (Storage time 0 day): 0.019% | Total impurity (%) (Storage time 6 h(RT)): 0.739% | Impurity (%)/RRT relative retention time 0.71 (Storage time 6 h(RT)): 0.18% | Impurity (%)/RRT relative retention time 0.89 (Storage time 6 h(RT)): 0.059% | Impurity (%)/RRT relative retention time 0.9 (Storage time 6 h(RT)): 0.069% | Impurity (%)/RRT relative retention time 0.93 (Storage time 6 h(RT)): 0.091% | Impurity (%)/RRT relative retention time 1.95 (Storage time 6 h(RT)): 0.089% | Impurity (%)/RRT relative retention time 1.97 (Storage time 6 h(RT)): 0.251% | Total impurity (%) (Storage time 12 h(RT)): 0.733% | Impurity (%)/RRT relative retention time 0.71 (Storage time 12 h(RT)): 0.176% | Impurity (%)/RRT relative retention time 0.89 (Storage time 12 h(RT)): 0.053% | Impurity (%)/RRT relative retention time 0.9 (Storage time 12 h(RT)): 0.063% | Impurity (%)/RRT relative retention time 0.93 (Storage time 12 h(RT)): 0.092% | Impurity (%)/RRT relative retention time 1.95 (Storage time 12 h(RT)): 0.093% | Impurity (%)/RRT relative retention time 1.97 (Storage time 12 h(RT)): 0.256% | Total impurity (%) (Storage time 18 h(RT)): 1.035% | Impurity (%)/RRT relative retention time 0.71 (Storage time 18 h(RT)): 0.174% | Impurity (%)/RRT relative retention time 0.83 (Storage time 18 h(RT)): 0.377% | Impurity (%)/RRT relative retention time 0.89 (Storage time 18 h(RT)): 0.054% | Impurity (%)/RRT relative retention time 0.9 (Storage time 18 h(RT)): 0.057% | Impurity (%)/RRT relative retention time 0.93 (Storage time 18 h(RT)): 0.092% | Impurity (%)/RRT relative retention time 1.95 (Storage time 18 h(RT)): 0.065% | Impurity (%)/RRT relative retention time 1.97 (Storage time 18 h(RT)): 0.216% | Total impurity (%) (Storage time 24 h(2-8° C.)): 0.608% | Impurity (%)/RRT relative retention time 0.71 (Storage time 24 h(2-8° C.)): 0.175% | Impurity (%)/RRT relative retention time 0.83 (Storage time 24 h(2-8° C.)): 0.189% | Impurity (%)/RRT relative retention time 0.89 (Storage time 24 h(2-8° C.)): 0.053% | Impurity (%)/RRT relative retention time 0.9 (Storage time 24 h(2-8° C.)): 0.064% | Impurity (%)/RRT relative retention time 0.93 (Storage time 24 h(2-8° C.)): 0.088% | Impurity (%)/RRT relative retention time 1.06 (Storage time 24 h(2-8° C.)): 0.039% | Total impurity (%) (Storage time 24 h(RT)): 1.254% | Impurity (%)/RRT relative retention time 0.71 (Storage time 24 h(RT)): 0.177% | Impurity (%)/RRT relative retention time 0.83 (Storage time 24 h(RT)): 0.524% | Impurity (%)/RRT relative retention time 0.89 (Storage time 24 h(RT)): 0.054% | Impurity (%)/RRT relative retention time 0.9 (Storage time 24 h(RT)): 0.053% | Impurity (%)/RRT relative retention time 0.93 (Storage time 24 h(RT)): 0.09% | Impurity (%)/RRT relative retention time 1.95 (Storage time 24 h(RT)): 0.097% | Impurity (%)/RRT relative retention time 1.97 (Storage time 24 h(RT)): 0.259%

Reference: patent publication US12502384B2, “Pharmaceutical composition containing nitroxoline prodrug, and preparation method and application therefor” (Jiangsu Yahong Meditech Co., Ltd., priority 2020, dated 2025)
